In patent US20190302114A1, “METHOD FOR DETECTING THE PRESENCE OF MYC[…] IN SAMPLE USING I[…] PHO[…]” (KEI INTERNATIONAL LIMITED, priority 2016, published 2019):

Tests used:
Type in all cases: binding
[1] = test system: antibodies against mycobacterial material in human serum; assay: ELISA with antigen immobilised on ELISA plates, rabbit anti-human IgM HRP as secondary antibody; settings: for tuberculosis specific binding of antibodies to the immobilised antigen: overall conclusion from TB patient versus healthy samples; for background ELISA signal (absorbance at 450 nm) in healthy persons: serum of healthy persons, 1:20, 'lower' is relative to immobilised mycolic acid
[2] = test system: antibodies against mycobacterial material in human serum; assay: ELISA with diacyl glycolipid antigen of formula (XIII) immobilised via the terminal thio group
[3] = test system: antibodies against mycobacterial material in human serum; assay: ELISA with antigen immobilised on ELISA plates, rabbit anti-human IgG HRP as secondary antibody
[4] = serum of smear positive TB patients 1-9 (+)

“2-palmitoyl-3-hydroxyphthioceranoyl-2′-sulfate-α-α′-D-trehalose [Ac2SGL]” was tested, and the “tuberculosis specific binding of antibodies to the immobilised antigen” value (“tuberculosis specific binding” for short) [1] was “very high tuberculosis specific binding”, the “background ELISA signal (absorbance at 450 nm) in healthy persons” value [1] was “markedly lower” and the “absorbance signal of samples from smear negative patients versus healthy persons” value ([1]; serum of smear negative TB patients 11-18 (−)) was “significantly higher than the signal of the healthy persons”. The “absorbance signal of samples from smear positive patients versus healthy persons” value [1, 4] was “higher than the signal of the healthy persons”.
`C/C(=C\C[n+]1cnc2c(ncn2[C@@H]2O[C@H](CO)C(O)[C@@H]2O)c1N)CC[C@@]1(C)[C@@H]2CCCC(C)(C)C2=CC[C@@H]1C` (stereo partly shown) [1-tuberculosinyladenosine] was tested, and the “tuberculosis specific binding” value [1] was “very high tuberculosis specific binding” and the “background ELISA signal (absorbance at 450 nm) in healthy persons” value [1] was “markedly lower”.
With `CCCCCCCCCCCCCCCCCC[C@H](C)C[C@H](C)[C@@H](O)[C@H](C)C(=O)O[C@@H]1C(OC(=O)CCCCCCCCCCCCCCCS)[C@@H](O[C@H]2OC(CO)[C@@H](O)C(O)[C@H]2O)OC(CO)[C@H]1O` (stereo partly shown) [formula (XIII)] the “background ELISA signal in healthy persons” value ([2]; healthy persons (n=4)) was “markedly lower”, the “tuberculosis specific binding” value ([2]; overall conclusion, most significant in smear negative samples) was “very high tuberculosis specific binding” and the “absorbance signal of samples from smear negative patients versus healthy persons” value ([2]; smear negative patients (n=32), very low standard deviation) was “significantly higher than the signal of the healthy persons”. For the same compound, the “absorbance signal of samples from smear positive patients versus healthy persons” value ([2]; smear positive patients (n=9), rather high standard deviation) was “higher than the signal of the healthy persons”.
With `CCCCCCCC(C)CCCC(C)CCCC(C)CCCC(C)CCCC(C)CCCOP(=O)(O)O[C@@H]1O[C@H](CO)[C@@H](O)[C@H](O)[C@@H]1O` (stereo partly drawn) [β-mannosyl phosphomycoketide] the “tuberculosis specific binding” value ([3]; overall conclusion, in particular smear positive samples) was “very high tuberculosis specific binding”, the “background ELISA signal (absorbance at 450 nm) in healthy persons” value ([3]; serum of healthy persons, 1:20, 'lower' is relative to immobilised mycolic acid) was “markedly lower” and the “absorbance signal of samples from smear positive patients versus healthy persons” value [3, 4] was “significantly higher than the signal obtained in the healthy persons”.
